This note sets out measurements from PubChem BioAssay AID248 (DTP/NCI, 2004).

In the assay the test system is L1210 leukemia ip in BDF1 mice, survival T/C. Briefly: NCI In Vivo Anticancer Drug Screen. Data for tumor model L1210 Leukemia (intraperitoneal) in B6D2F1 (BDF1) mice. The settings on record: endpoint: mean survival time, higher = longer survival. An outline of the steps: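 Tumor cells were implanted, animals were treated, and survival was followed. The result divides the treated measurement by the vehicle-control measurement.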

[1] abbreviates: dose: 100.0 mg/kg/injection, schedule: Q01DX009 (ip), vehicle: other.
Setting [2] is: dose: 100.0 mg/kg/injection, schedule: Q04DX003 (ip), vehicle: other.
Setting [3] is: dose: 100.0 mg/kg/injection, schedule: Q04DX003 (ip), vehicle: saline with Tween-80.
Where [4] appears, read: dose: 200.0 mg/kg/injection, schedule: Q01DX009 (ip), vehicle: other.
Where [5] appears, read: dose: 200.0 mg/kg/injection, schedule: Q04DX003 (ip), vehicle: other.
Setting [6] is: dose: 200.0 mg/kg/injection, schedule: Q04DX003 (ip), vehicle: saline with Tween-80.
[7] abbreviates: dose: 400.0 mg/kg/injection, schedule: Q04DX003 (ip), vehicle: other.
Setting [8] is: dose: 400.0 mg/kg/injection, schedule: Q04DX003 (ip), vehicle: saline with Tween-80.
Where [9] appears, read: dose: 100.0 mg/kg/injection, schedule: Q04DX003 (ip), vehicle: Klucel (hydroxypropylcellulose) (HPC).
The mark [10] stands for this setting: dose: 200.0 mg/kg/injection, schedule: Q04DX003 (ip), vehicle: Klucel (hydroxypropylcellulose) (HPC).
The mark [11] stands for this setting: dose: 400.0 mg/kg/injection, schedule: Q04DX003 (ip), vehicle: Klucel (hydroxypropylcellulose) (HPC).
Setting [12] is: dose: 100.0 mg/kg/injection, schedule: Q01DX009 (ip), vehicle: Klucel (hydroxypropylcellulose) (HPC).
Setting [13] is: dose: 200.0 mg/kg/injection, schedule: Q01DX009 (ip), vehicle: Klucel (hydroxypropylcellulose) (HPC).
[14] abbreviates: dose: 100.0 mg/kg/injection, schedule: Q01DX001 (ip), vehicle: saline.
Where [15] appears, read: dose: 200.0 mg/kg/injection, schedule: Q01DX001 (ip), vehicle: saline.
Where [16] appears, read: dose: 400.0 mg/kg/injection, schedule: Q01DX001 (ip), vehicle: saline.
[17] abbreviates: dose: 200.0 mg/kg/injection, schedule: Q01DX009 (ip), vehicle: saline with Tween-80.
[18] abbreviates: dose: 400.0 mg/kg/injection, schedule: Q01DX009 (ip), vehicle: saline with Tween-80.
[19] abbreviates: dose: 400.0 mg/kg/injection, schedule: Q01DX009 (ip), vehicle: Klucel (hydroxypropylcellulose) (HPC).
Setting [20] is: dose: 100.0 mg/kg/injection, schedule: Q04DX003 (ip), vehicle: saline.
Where [21] appears, read: dose: 200.0 mg/kg/injection, schedule: Q04DX003 (ip), vehicle: saline.
[22] abbreviates: dose: 400.0 mg/kg/injection, schedule: Q04DX003 (ip), vehicle: saline.
[23] abbreviates: dose: 100.0 mg/kg/injection, schedule: Q01DX009 (ip), vehicle: saline with Tween-80.

“And” between values parts separate entries of the source, which are not always exact repeats. Equal entries are not always repeated. Toxic doses and inconclusive results are not listed.

On to `CC(=O)c1cccc([N+](=O)[O-])c1`, for which the T/C was 91 % of control under setting [1]; 102 % of control under setting [2]; 105 % of control under setting [3]; 105 % of control under setting [4]; 100 % of control under setting [5]; 106 % of control under setting [6]. In addition, the T/C is, setting by setting: under setting [7], 94 % of control; under setting [8], 108 % of control.
`CC(=O)Nc1ccc(O)cc1[N+](=O)[O-]`: the T/C under setting [9] is 107 % of control, the T/C under setting [10] was 103 % of control and the T/C under setting [11] was 103 % of control.
On to `CC(=O)Nc1cccc(Br)c1`, for which the T/C by setting is: (dose: 50.0 mg/kg/injection, schedule: Q01DX009 (ip), vehicle: Klucel (hydroxypropylcellulose) (HPC)) 101 % of control; under setting [12], 106 % of control and 90 % of control; under setting [13], 95 % of control and 102 % of control.
Regarding `Cc1cc2oc(=O)c3c(c2c(O)c1CN1CCCC1)CCCC3`, the T/C was 92 % of control under setting [14], 89 % of control under setting [15] and 98 % of control under setting [16].
Consider `Cc1ccc(NC(=O)Nc2ccc(C)c(NC(=O)Nc3ccc(C)cc3C)c2)c(C)c1`, for which the T/C is, setting by setting: under setting [3], 90 % of control; under setting [17], 103 % of control; under setting [6], 95 % of control; under setting [18], 109 % of control; under setting [8], 93 % of control.
As for `CN(C)N=Nc1nn(C2CCCO2)cc1C(N)=O` (centres undefined), where the note is “dose: 100.0 mg/kg/injection, schedule: Q01DX005 (ip), vehicle: saline”, the T/C was 150 % of control.
Consider `CCc1cccc(CC)c1N=Cc1ccccc1`, for which the T/C was 97 % of control under setting [12], 105 % of control under setting [13] and 97 % of control under setting [19].
For the molecule `N#CC1(C#N)OC1c1ccccc1Cl` (centres undefined), the T/C was 100 % of control (dose: 10.0 mg/kg/injection, schedule: Q04DX002 (ip), vehicle: Klucel (hydroxypropylcellulose) (HPC)) and 100 % of control (dose: 20.0 mg/kg/injection, schedule: Q04DX002 (ip), vehicle: Klucel (hydroxypropylcellulose) (HPC)).
`Nc1ccc(Cl)cc1C(=O)c1ccccc1`: the T/C (dose: 25.0 mg/kg/injection, schedule: Q04DX002 (ip), vehicle: DMSO) was 95 % of control; the T/C (dose: 50.0 mg/kg/injection, schedule: Q04DX002 (ip), vehicle: DMSO) was 89 % of control; the T/C (dose: 100.0 mg/kg/injection, schedule: Q04DX002 (ip), vehicle: DMSO) was 106 % of control and 88 % of control.
Take `Cn1c(=O)c2c(ncn2CCO)n(C)c1=O`: the T/C runs as follows: under setting [14], 100 % of control; (dose: 100.0 mg/kg/injection, schedule: Q01DX009 (ip), vehicle: saline) 99 % of control; under setting [20], 104 % of control; under setting [15], 104 % of control; (dose: 200.0 mg/kg/injection, schedule: Q01DX009 (ip), vehicle: saline) 100 % of control; under setting [21], 101 % of control. Further, the T/C is 102 % of control under setting [16]; 105 % of control (dose: 400.0 mg/kg/injection, schedule: Q01DX009 (ip), vehicle: saline); 100 % of control under setting [22].
As to `CC1C(=O)CCC2(C)CCC(C)(C)CC12` (centres undefined), the T/C by setting is: under setting [23], 98 % of control; under setting [20], 105 % of control; under setting [17], 95 % of control; under setting [21], 97 % of control; under setting [18], 101 % of control; under setting [22], 103 % of control.
Take `CC(=O)Nc1c(O)c(Cl)c(Cl)c(Cl)c1Cl`: the T/C under setting [20] is 105 % of control, the T/C under setting [21] was 101 % of control and the T/C under setting [22] was 94 % of control.
For the molecule `Cc1ccc(OC/C=C/CSc2ccc(C)cc2)cc1`, the T/C is 98 % of control (dose: 100.0 mg/kg/injection, schedule: Q01DX001 (ip), vehicle: Klucel (hydroxypropylcellulose) (HPC)); 101 % of control under setting [9]; 94 % of control (dose: 200.0 mg/kg/injection, schedule: Q01DX001 (ip), vehicle: Klucel (hydroxypropylcellulose) (HPC)); 97 % of control under setting [10]; 94 % of control (dose: 400.0 mg/kg/injection, schedule: Q01DX001 (ip), vehicle: Klucel (hydroxypropylcellulose) (HPC)); 95 % of control under setting [11].
With `CN(C)C=NCCNc1ccc([N+](=O)[O-])cn1`, the T/C is 100 % of control (dose: 50.0 mg/kg/injection, schedule: Q01DX009 (ip), vehicle: saline with Tween-80); 98 % of control (dose: 100.0 mg/kg/injection, schedule: Q01DX001 (ip), vehicle: saline with Tween-80); 100 % of control under setting [23]; 95 % of control (dose: 200.0 mg/kg/injection, schedule: Q01DX001 (ip), vehicle: saline with Tween-80).
Consider `O=C(Nc1ccc(Br)cc1)Nc1ccccc1Cl`, for which the T/C by setting is: (dose: 100.0 mg/kg/injection, schedule: Q04DX002 (ip), vehicle: saline + alcohol) 100 % of control; (dose: 200.0 mg/kg/injection, schedule: Q04DX002 (ip), vehicle: saline + alcohol) 94 % of control; (dose: 400.0 mg/kg/injection, schedule: Q04DX002 (ip), vehicle: saline + alcohol) 96 % of control.
`CSc1nc(Cl)cc(N2CC2)n1`: the T/C is 106 % of control (dose: 0.39 mg/kg/injection, schedule: Q01DX009 (ip), vehicle: saline); 97 % of control (dose: 0.78 mg/kg/injection, schedule: Q01DX009 (ip), vehicle: saline); 107 % of control (dose: 0.78 mg/kg/injection, schedule: Q04DX003 (ip), vehicle: saline); 101 % of control (dose: 1.56 mg/kg/injection, schedule: Q01DX001 (ip), vehicle: saline); 101 % of control (dose: 1.56 mg/kg/injection, schedule: Q04DX003 (ip), vehicle: saline); 101 % of control (dose: 3.12 mg/kg/injection, schedule: Q01DX001 (ip), vehicle: saline). For the same molecule, the T/C (dose: 59.0 mg/kg/injection, schedule: Q01DX Z (ip), vehicle: methylcellulose (MC)) is 94 % of control and the T/C (dose: 88.0 mg/kg/injection, schedule: Q01DX Z (ip), vehicle: methylcellulose (MC)) was 93 % of control.
Regarding `COc1cc(Br)c(CCC(N)=O)cc1OC`, the T/C is 96 % of control under setting [3], 95 % of control under setting [6] and 93 % of control under setting [8].
Turning to `O=C1CCCc2ccc(Br)cc21`, the T/C by setting is: under setting [3], 99 % of control; under setting [6], 96 % of control; under setting [8], 99 % of control.
For `CC(=O)Nc1ccc(NC(=O)NCCCCCCNC(=O)Nc2ccc(NC(C)=O)cc2)cc1`, the T/C runs as follows: under setting [12], 102 % of control; under setting [13], 98 % of control; under setting [19], 100 % of control.
Consider `S=P(NCCCCCCNP(=S)(N1CC1)N1CC1)(N1CC1)N1CC1`, for which the T/C runs as follows: (dose: 100.0 mg/kg/injection, schedule: Q01DX001 (ip), vehicle: carboxymethylcellulose (CMC)) 104 % of control; (dose: 200.0 mg/kg/injection, schedule: Q01DX001 (ip), vehicle: carboxymethylcellulose (CMC)) 112 % of control; (dose: 400.0 mg/kg/injection, schedule: Q01DX001 (ip), vehicle: carboxymethylcellulose (CMC)) 119 % of control.
Turning to `COc1cccc(CN(CCC(=O)O)Cc2cccc(OC)c2)c1`, the T/C is, setting by setting: under setting [1], 100 % of control; under setting [2], 88 % of control; under setting [4], 102 % of control; under setting [5], 88 % of control; (dose: 400.0 mg/kg/injection, schedule: Q01DX009 (ip), vehicle: other) 102 % of control; under setting [7], 93 % of control.
Take `CCOC(=O)C(CCNC(=O)c1ccccc1)C(=O)OCC`: the T/C was 103 % of control under setting [12]; 93 % of control under setting [9]; 91 % of control under setting [13]; 95 % of control under setting [10]; 89 % of control under setting [19]; 93 % of control under setting [11].
